The series is described as follows: method code SF-FL/RC, from DOI: 10.1007/bf00499868, PMID: 43479. The conditions noted are these: for logD: pH 7.4.

As to `C[C@H](N)[C@H](O)c1cccc(O)c1`, the logP – broadly, the decadic logarithm of the partition coefficient of the neutral form, usually between octanol and water – is -0.27. Consider `OCC(O)c1ccc(O)c(O)c1` (stereo unspecified), for which the logD (usually lipophilicity at a set pH, counting ionised and neutral species) is -1.01. For the compound `NCC(O)c1ccc(O)cc1` (stereo unspecified), the log partition coefficient (logP) is -0.75. The compound `CNCC(O)c1ccc(O)c(OC)c1` (stereo unspecified) returned a log partition coefficient (logP) of -0.64. The same measure, in the same setting: to `CNCC(O)c1ccc(O)cc1` (stereo unspecified) belongs -0.45. As to `COc1cc(CCO)ccc1O`, the pH-dependent lipophilicity (logD) turned out to be 0.47. Consider `CNC[C@H](O)c1ccc(O)c(O)c1`, for which the logP was -1.37.

Regarding `COc1cc(CCN)ccc1O`, the logP was -0.08. With `COc1cc(C(O)CO)ccc1O` (stereo unspecified), the logD is -0.58. The compound `COc1cc(C(O)CN)ccc1O` (stereo unspecified) came in with a logP of -1.05. Same read-out and setting: to `CC(N)C(O)c1ccc(O)c(O)c1` (stereo unspecified) belongs -1.43.
